The text below walks through data of patent US8609836B2, “4-aryl-2-anilino-pyrimidines” (Janssen Pharmaceutica NV, priority 2008, dated 2013).

Assay [1] concerns the target PLK4 (h) (Homo sapiens, UniProt O00444). Kind of assay: PLK-4 human kinase inhibition, scintillation proximity assay (SPA). Conditions: read-out: PLK4 pIC50 (converted). The class given is biochemical. For orientation: Scintillation proximity formats need no separation of bound from free tracer.
Assay [2] has as its target AuroraB (h) (Homo sapiens, UniProt Q96GD4). The assay can be described thus: Aurora-B human kinase inhibition, SPA. To be noted: read-out: AuroraB pIC50 (converted). The class given is biochemical. The procedure, abridged: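 AuroraB (0.5 μg/ml) phosphorylates 3 μM biotin-peptide using 0.5 μM ATP spiked with 33P-ATP in Hepes pH 7.5 with 3 mM MgCl2 and MnCl2, for 60 min at room temperature. EDTA stop solution carries streptavidin scintillant beads, and the captured radiolabel is imaged.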

For assay [3], the target named is GSK3β (h) (Homo sapiens, UniProt P49841). Kind of assay: GSK-3β human kinase inhibition, SPA. The class given is biochemical. To be noted: read-out: GSK3b pIC50 (converted). Put shortly: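 Radiometric: 33P-labelled peptide captured on streptavidin SPA beads after EDTA stop and imaged on Leadseeker. Reaction ran 1 h at RT, 1 μM cold ATP with 2 nM [γ-33P]ATP, 1 μM biotin-peptide substrate, human GSK3β 1 μg/ml, pH 7.4 Tris buffer.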
Chain of GSK3β (h) (P49841 whole entry): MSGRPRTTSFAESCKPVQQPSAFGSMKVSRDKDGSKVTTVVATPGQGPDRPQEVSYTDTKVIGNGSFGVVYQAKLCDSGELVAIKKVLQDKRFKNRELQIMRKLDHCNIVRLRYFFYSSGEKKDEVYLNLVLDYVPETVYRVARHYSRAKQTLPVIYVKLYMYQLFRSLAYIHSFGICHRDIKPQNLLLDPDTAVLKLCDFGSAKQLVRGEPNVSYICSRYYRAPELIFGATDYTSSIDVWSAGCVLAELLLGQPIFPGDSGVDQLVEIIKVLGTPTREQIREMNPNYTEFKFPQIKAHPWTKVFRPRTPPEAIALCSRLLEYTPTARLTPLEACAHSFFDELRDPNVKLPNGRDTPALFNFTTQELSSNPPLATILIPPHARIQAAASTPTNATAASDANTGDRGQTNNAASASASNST

Assay [4] addresses CDK1/CyclinB (h) (Homo sapiens, UniProt P06493). The assay can be described thus: CDK1/CyclinB human kinase inhibition, Invitrogen's FRET assay (Z'lyte). Format: biochemical. Conditions: read-out: CDK1 pIC50 (converted). Put shortly: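 Read-out is the 460 nm/538 nm emission ratio (390 nm excitation) after a 60 min protease development step. Before that, 10 μM ATP and 2 μM Z'lyte Ser/Thr peptide 12 react 60 min at room temperature with 0.2 μg/ml human CDK1/CyclinB in Hepes pH 7.5 containing MgCl2, EGTA and Brij-35.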

Assay [5] addresses CDK4/CyclinD1 (h) (Homo sapiens, UniProt P11802). The assay can be described thus: CDK4/CyclinD1 human kinase inhibition, SPA with GST-pRb substrate. Format: biochemical. Conditions: read-out: CDK4 pIC50 (converted). How it is done:
The in vitro inhibition of a panel of kinases was assessed using either the scintillation proximity assay (SPA) as described by Cook, N. D. et al., Advances in Experimental Medicine and Biology (1991), 36; p. 525-528.
In the SPA technology the activity of the kinase of interest is measured using an appropriate biotinylated substrate that is incubated with the aforementioned kinase protein in the presence of (^33P) radiolabeled ATP. (^33P) Phosphorylation of the substrate is subsequently measured through binding of the phosphorylated substrate to streptavidine coated beads that are based on the scintillant poly(vinyl toluene) (PVT-Beads). The scintillation intensity is detected by imaging on Leadseeker.
All kinases are pre-diluted to a 10× working concentration prior to addition into the assay. The composition of the dilution buffer for each kinase is detailed below.
In a final reaction volume of 30 μl, CDK4/CyclinD1 (h) (2.5 μg/ml) is incubated with 50 mM Hepes pH 7.5, 8 mM NaF, 20 mM MgCl2, 1 mM DTT, 40 μg/ml of substrate GST-pRb, 2 nM [γ-^33P-ATP] (6.0 μCi/ml). After incubation of 60 minutes at room temperature, the reaction is stopped by addition of 40 μL of stop solution containing 8.7 mM EDTA, 0.17% Triton X-100, 25 mg/ml Glutathion SPA Beads (GE-healthcare). The plate is centrifuged and read for Scintillation topcount analyzer.

Assay [6] concerns the target PLK1 T210D (h) (Homo sapiens, UniProt P53350, T210D). The assay can be described thus: PLK1 human kinase inhibition, SPA. Format: biochemical. To be noted: read-out: PLK1 pIC50 (converted). The procedure, abridged:
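Kinase incubated 40 min at room temperature with 0.1 μM ATP (2 nM [γ-33P]ATP tracer), 2 μM biotinylated peptide, pH 8.0 Hepes buffer with 2 mM MnCl2 and 1 mM DTT; enzyme at 0.125 ng/ml. Stopped with EDTA; 33P-peptide bound to streptavidin scintillant beads and imaged.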

Assay [7] has as its target PLK2 (h) (Homo sapiens, UniProt Q9NYY3). Kind of assay: PLK2 human kinase inhibition, SPA. The class given is biochemical. To be noted: read-out: PLK2 pIC50 (converted). Put shortly: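 33P incorporation into a biotinylated peptide (2 μM) was captured on streptavidin PVT beads and imaged on Leadseeker. Enzyme at 30 μg/ml, ATP 0.1 μM with 2 nM [γ-33P]ATP, Hepes pH 8.0 with MnCl2 and DTT. Incubation was 20 min at room temperature.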

The target of assay [8] is PLK3 (h) (Homo sapiens, UniProt Q9H4B4). Kind of assay: PLK3 human kinase inhibition, SPA. The class given is biochemical. Conditions: read-out: PLK3 pIC50 (converted). Put shortly: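 Radiometric scintillation proximity format at pH 8.0 (Hepes, MnCl2, DTT). The 2 μM biotin-peptide substrate is phosphorylated by PLK3 (h) (30 μg/ml) using 0.1 μM ATP traced with 33P, for 20 min at room temperature. EDTA stop; phosphopeptide captured on streptavidin beads and imaged.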
Chain of PLK3 (h) (Q9H4B4 whole entry): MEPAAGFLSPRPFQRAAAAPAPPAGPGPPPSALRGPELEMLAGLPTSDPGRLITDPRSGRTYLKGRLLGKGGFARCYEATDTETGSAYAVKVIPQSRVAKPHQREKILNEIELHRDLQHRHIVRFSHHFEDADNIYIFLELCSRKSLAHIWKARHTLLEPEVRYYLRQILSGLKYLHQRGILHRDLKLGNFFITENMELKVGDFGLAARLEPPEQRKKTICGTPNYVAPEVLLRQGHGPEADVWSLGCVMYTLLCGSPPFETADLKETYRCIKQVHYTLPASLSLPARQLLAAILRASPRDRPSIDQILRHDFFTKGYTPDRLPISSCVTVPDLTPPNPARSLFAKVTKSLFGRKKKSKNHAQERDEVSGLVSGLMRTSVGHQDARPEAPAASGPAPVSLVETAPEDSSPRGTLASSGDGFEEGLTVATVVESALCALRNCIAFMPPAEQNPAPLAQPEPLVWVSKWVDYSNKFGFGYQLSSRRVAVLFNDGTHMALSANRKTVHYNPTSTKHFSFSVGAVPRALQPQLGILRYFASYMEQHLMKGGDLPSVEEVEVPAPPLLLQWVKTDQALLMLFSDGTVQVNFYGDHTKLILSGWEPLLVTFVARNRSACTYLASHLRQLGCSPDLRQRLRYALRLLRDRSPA

Assay [9] relates to HCT-116. Kind of assay: Cellular proliferation assay (Alamar blue), HCT-116. To be noted: Homo sapiens, 10% FCS, 72 hours with compound, Alamar blue 4 h. Format: cell-based. The procedure, abridged: (§1)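 After a 24 h compound-free attachment period, cells in 10% FCS medium are treated for 72 h at 37° C. Resazurin conversion is then quantified by fluorescence, with dye incubation lasting 4 h for HCT-116, 6 h for U87-MG and 24 h for A2780 or MDA-MB-231.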
A general note: Resazurin is reduced to fluorescent resorufin, in cell work by metabolically active cells.

Assay [10] concerns U87-MG. The assay can be described thus: Cellular proliferation assay (Alamar blue), U87-MG. The class given is cell-based. Conditions: Homo sapiens, U-87 MG; 10% FCS; 72 hours with compound; Alamar blue 6 h; read-out: U87-MG (cellular proliferation assay, Table 4) (converted). The procedure, abridged:
as §1

The subject of assay [11] is A2780. The assay can be described thus: Cellular proliferation assay (Alamar blue), A2780. To be noted: Homo sapiens, 10% FCS, 72 hours with compound, Alamar blue 24 h, read-out: A2780 (cellular proliferation assay, Table 4) (converted). The class given is cell-based. Put shortly:
as §1

Chain of PLK1 T210D (h) (P53350 whole entry T210D): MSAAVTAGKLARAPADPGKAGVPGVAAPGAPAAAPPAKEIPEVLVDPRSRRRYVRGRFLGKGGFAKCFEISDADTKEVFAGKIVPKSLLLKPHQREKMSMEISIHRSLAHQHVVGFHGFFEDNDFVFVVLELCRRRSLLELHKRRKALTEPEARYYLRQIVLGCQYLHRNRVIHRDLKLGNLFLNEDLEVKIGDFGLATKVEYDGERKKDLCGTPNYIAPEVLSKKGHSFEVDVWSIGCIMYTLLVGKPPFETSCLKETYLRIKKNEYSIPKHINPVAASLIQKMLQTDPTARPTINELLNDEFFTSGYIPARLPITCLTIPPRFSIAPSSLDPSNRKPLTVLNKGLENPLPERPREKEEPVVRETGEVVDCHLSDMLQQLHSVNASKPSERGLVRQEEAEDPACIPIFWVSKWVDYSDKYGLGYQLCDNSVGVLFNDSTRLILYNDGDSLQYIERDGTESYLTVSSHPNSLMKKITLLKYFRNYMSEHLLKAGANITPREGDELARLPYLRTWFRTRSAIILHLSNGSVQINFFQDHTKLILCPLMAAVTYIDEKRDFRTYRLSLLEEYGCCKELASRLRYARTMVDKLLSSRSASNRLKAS
Chain of CDK4/CyclinD1 (h) (P11802 whole entry): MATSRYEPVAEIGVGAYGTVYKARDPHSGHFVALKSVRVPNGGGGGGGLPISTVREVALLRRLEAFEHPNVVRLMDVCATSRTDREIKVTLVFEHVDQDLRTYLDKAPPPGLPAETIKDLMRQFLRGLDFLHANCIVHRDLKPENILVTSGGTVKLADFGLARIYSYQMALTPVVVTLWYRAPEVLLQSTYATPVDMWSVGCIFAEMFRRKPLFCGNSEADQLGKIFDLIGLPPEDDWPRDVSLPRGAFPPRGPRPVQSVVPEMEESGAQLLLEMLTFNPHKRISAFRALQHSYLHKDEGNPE
Chain of CDK4/CyclinD1 (h) (P24385 whole entry partner): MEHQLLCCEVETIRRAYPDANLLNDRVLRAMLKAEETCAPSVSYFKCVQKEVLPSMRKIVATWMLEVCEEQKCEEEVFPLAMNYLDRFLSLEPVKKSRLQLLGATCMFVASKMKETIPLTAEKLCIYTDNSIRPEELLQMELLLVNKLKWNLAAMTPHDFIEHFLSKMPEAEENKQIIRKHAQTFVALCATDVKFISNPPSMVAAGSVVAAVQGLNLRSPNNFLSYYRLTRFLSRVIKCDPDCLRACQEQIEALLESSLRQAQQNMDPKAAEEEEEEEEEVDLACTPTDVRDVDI
Chain of PLK2 (h) (Q9NYY3 whole entry): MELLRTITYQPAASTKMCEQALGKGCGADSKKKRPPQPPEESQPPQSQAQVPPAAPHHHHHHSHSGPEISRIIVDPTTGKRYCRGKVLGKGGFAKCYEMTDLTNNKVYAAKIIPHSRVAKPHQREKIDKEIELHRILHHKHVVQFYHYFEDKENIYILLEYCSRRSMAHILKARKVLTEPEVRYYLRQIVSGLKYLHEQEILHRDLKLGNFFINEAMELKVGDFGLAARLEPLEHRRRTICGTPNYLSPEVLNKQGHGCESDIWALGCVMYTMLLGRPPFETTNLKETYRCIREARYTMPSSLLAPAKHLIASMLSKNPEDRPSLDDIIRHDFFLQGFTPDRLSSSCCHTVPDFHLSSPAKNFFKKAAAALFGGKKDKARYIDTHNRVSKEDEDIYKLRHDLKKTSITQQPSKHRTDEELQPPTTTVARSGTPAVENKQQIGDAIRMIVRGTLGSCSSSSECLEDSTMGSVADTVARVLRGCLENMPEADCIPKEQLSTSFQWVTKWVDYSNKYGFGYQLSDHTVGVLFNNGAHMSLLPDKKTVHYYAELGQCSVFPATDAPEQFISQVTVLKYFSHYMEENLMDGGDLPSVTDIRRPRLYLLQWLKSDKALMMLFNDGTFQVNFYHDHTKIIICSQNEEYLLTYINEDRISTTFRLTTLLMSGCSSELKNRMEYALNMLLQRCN
Chain of AuroraB (h) (Q96GD4 whole entry): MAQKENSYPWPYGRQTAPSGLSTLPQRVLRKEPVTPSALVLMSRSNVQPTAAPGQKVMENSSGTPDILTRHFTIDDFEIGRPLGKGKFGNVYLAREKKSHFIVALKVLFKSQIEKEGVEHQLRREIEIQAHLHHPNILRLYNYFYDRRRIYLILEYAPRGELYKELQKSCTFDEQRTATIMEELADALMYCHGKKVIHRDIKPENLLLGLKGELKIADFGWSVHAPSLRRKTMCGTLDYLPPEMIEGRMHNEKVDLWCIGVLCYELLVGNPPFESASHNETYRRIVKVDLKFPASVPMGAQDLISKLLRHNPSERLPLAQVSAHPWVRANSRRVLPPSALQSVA
Chain of CDK1/CyclinB (h) (P06493 whole entry): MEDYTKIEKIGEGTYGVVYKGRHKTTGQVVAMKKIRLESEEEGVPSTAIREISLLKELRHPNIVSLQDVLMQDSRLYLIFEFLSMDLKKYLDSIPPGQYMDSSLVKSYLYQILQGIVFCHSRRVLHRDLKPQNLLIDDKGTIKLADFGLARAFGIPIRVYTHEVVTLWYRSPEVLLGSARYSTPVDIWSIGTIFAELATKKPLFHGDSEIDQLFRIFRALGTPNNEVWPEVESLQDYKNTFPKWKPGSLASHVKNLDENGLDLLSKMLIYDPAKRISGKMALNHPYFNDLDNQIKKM
Chain of CDK1/CyclinB (h) (P14635 whole entry partner): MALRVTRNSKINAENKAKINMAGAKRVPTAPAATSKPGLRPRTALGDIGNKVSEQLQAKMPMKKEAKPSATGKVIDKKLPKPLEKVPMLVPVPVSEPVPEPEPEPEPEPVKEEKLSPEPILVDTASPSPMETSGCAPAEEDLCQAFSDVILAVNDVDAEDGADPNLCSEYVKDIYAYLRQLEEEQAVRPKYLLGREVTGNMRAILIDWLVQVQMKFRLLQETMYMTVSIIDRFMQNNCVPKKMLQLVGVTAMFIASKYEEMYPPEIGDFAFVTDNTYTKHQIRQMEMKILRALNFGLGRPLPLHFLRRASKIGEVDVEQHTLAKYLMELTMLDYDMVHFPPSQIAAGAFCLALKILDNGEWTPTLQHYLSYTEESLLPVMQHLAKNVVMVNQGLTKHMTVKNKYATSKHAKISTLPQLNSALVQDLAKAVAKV
Chain of PLK4 (h) (O00444 whole entry): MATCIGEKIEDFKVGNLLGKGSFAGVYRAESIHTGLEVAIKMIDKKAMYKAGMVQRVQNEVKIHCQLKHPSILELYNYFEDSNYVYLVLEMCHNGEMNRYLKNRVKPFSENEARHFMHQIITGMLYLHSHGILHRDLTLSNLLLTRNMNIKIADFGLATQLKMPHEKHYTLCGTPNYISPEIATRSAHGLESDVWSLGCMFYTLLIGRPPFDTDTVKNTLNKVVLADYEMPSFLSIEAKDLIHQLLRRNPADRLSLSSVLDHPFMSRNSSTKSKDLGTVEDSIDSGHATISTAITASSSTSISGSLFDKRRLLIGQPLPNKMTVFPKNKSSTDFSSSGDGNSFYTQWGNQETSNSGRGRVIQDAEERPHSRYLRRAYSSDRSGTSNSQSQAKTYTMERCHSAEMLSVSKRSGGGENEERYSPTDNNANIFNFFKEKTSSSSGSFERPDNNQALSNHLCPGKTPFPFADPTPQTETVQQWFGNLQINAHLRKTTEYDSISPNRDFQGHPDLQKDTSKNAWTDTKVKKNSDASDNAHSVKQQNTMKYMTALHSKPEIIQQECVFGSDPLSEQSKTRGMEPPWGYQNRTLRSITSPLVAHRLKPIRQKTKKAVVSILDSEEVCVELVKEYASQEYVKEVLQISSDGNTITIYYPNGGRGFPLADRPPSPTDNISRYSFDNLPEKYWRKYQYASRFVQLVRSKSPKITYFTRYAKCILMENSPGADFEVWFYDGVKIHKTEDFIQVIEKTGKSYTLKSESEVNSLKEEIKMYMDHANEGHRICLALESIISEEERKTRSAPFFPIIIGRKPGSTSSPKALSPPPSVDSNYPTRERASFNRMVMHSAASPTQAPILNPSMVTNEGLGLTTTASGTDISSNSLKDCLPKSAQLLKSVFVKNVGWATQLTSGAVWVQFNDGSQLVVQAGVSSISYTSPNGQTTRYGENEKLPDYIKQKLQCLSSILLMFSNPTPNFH

As for `CN1CCCNC(=O)CN2CCN(CC2)Cc2cccc(c2)Nc2nccc(n2)-c2ccc(cc2)C1` [Compound 143], the IC50 in [1] was 3.55 µM; in assay [2], over 10 µM; in assay [3] it was over 3.02 µM; in assay [4], over 10 µM; in [5], over 10 µM; in assay [6], over 10 µM. The IC50 in assay [7], in [8], in assay [9], in assay [10] and in assay [11] was over 10 µM each time.

With `COc1ccc2cc1CN1CCC[C@H]1C(=O)NCCCc1ccc(cn1)-c1ccnc(n1)N2` [Compound 2], the IC50 in assay [1], in [2], in [3], in assay [4], in assay [5] and in assay [6] was over 10 µM in each case. Besides, the IC50 in assay [7], in assay [8], in assay [9] and in assay [10] was over 10 µM throughout.

Turning to `COc1ccc2cc1CN(C)CCNC(=O)CN1CCN(CC1)Cc1cc(Br)cc(c1)Nc1nccc-2n1` [Compound 50], the IC50 in assay [1] was 9.33 µM; in assay [2] it was over 10 µM; in assay [3] it was 5.13 µM; in assay [4], over 10 µM; in assay [5] it was over 10 µM; in [6] it was over 10 µM. Moreover, the IC50 in assay [7], in assay [8], in assay [9], in assay [10] and in assay [11] was over 10 µM in each case.

Turning to `CN1CCCNC(=O)CN2CCN(CC2)Cc2cc(Br)cc(c2)Nc2nccc(n2)-c2ccc(cc2)C1` [Compound 137], the IC50 in assay [1] is 2.09 µM; in assay [2], over 10 µM; in assay [3], 2.95 µM; in [4], over 10 µM; in [5], over 10 µM; in [6] it was over 10 µM. Besides, the IC50 in [7] is over 10 µM; in assay [8], over 10 µM; in assay [9], over 10 µM; in assay [10], 7.94 µM; in assay [11], 3.89 µM.

On to `CN1CCCNC(=O)[C@@H]2CCCN2Cc2cc(Br)cc(c2)Nc2nccc(n2)-c2ccc(cc2)C1` [Compound 159], for which the IC50 was 1.48 µM in [1]; 5.75 µM in assay [2]; 6.31 µM in [3]; over 10 µM in assay [4]; over 10 µM in assay [5]; over 10 µM in assay [6]. Further, the IC50 in assay [7] is over 10 µM; in assay [8], over 10 µM; in assay [9], over 10 µM; in assay [10] it was 6.92 µM; in [11] it was 2.69 µM.

With `CN1CCCNC(=O)C2CCN(CC2)Cc2cc(Br)cc(c2)Nc2nccc(n2)-c2ccc(cc2)C1` [Compound 63], the IC50 was 1.12 µM in [1]; over 10 µM in assay [2]; 1.91 µM in assay [3]; over 10 µM in assay [4]; over 10 µM in assay [5]; over 10 µM in assay [6]. In addition, the IC50 in [7] was over 10 µM; in assay [8], over 10 µM; in [9], over 10 µM; in assay [10], 5.89 µM; in assay [11], 2.69 µM.

In the case of `COc1ccc2cc1CN(C)CCNC(=O)[C@@H]1CCCN1Cc1cc(Br)cc(c1)Nc1nccc-2n1` [Compound 174], the IC50 is about 6.92 µM in assay [1]; 8.71 µM in assay [2]; 4.79 µM in assay [3]; over 10 µM in assay [4]; over 10 µM in [5]; over 10 µM in assay [6]. For the same compound, the IC50 in assay [7] was over 10 µM; in assay [8], over 10 µM; in assay [9], over 10 µM; in [10] it was over 10 µM; in [11], 1.66 µM.

As to `O=C1NCc2cccc(c2)-c2ccnc(n2)Nc2ccc(cc2)CN[C@H]1CO` [Compound 191], the IC50 in assay [1] is over 10 µM; in assay [2], over 10 µM; in [3], 7.94 µM; in assay [4], over 10 µM; in [5] it was 7.41 µM; in assay [6], over 10 µM. Further, the IC50 in assay [7] and in assay [8] was over 10 µM each time.
